Test results taken from patent US20050276838A1, “Composition and method for viral inhibition” (priority 2003, published 2005).
Read-outs that look alike come from different tables or passages of the source.

Experiments:
MA-104 cells = format: cell-based, Rhesus monkey
Protocol: (§1) MA-104 cells of epithelial morphology were obtained from American Type Culture Collection and were originally derived from Rhesus monkey embryonic kidney. The cells were cultured at 37° C. in a humidified incubator and in an atmosphere of 5% CO2, in Minimal Essential Medium with Earle's balanced salt solution (2 mM glutamine, 1 mM sodium pyruvate, 0.1 mM non-essential amino acids and 1.5 g/L sodium bicarbonate) supplemented with 10% fetal bovine serum from Hyclone, Logan, Utah. The cells were passaged twice a week at a split ratio of 1:4.
(§2) MTT Viability Assays were conducted in a Promega CellTiter 96® Non-Radioactive Cell Kit (Cat # G400) obtained from Promega, Madison, Wis. and used according to manufacturer's instructions.
(§3) Test compounds were prepared by dissolving each compound at 20-μg/mL final concentration in incomplete MA-104 media (Minimal Essential Medium with Earle's balanced salt solution). The compounds were sterilized by filtration through a 0.45-micron filter. The filter-sterilized stock was stored frozen at less than −20° C.
(§4) Virus Inhibition Assay: Virus strain Wa (1:2 dilution from stock) was activated in the presence of 5 μg/mL trypsin and incubated with 1, 10 or 100 μg/mL test compound in serum-free medium at 37° C. for 30 minutes. The activated virus was then diluted 1:5 in serum-free medium containing test compound at the same concentration (to bring the trypsin concentration to 1 μg/mL), added to MA-104 cells, and serially diluted on microtiter plates (5-fold series). The diluent contained 1 μg/mL trypsin and the indicated amount of test compound. After the virus was adsorbed at 37° C. for 1 hour, the virus innoculum was removed, and the media was replaced with serum-free medium containing 1 μg/mL trypsin and the indicated amount of test compound. Cultures were incubated at 37° C. for 3 days, and then cell viability was assessed with the Promega MTT assay following manufacturer's instructions. Each plate contained a dilution series of virus not treated with test compound and each plate contained cells exposed to test compound without virus. All samples were tested in triplicate. Absorbance at 570 nm was determined on a SpectraMax microplate reader (Molecular Devices) equipped with SoftMax Pro (v 3.1.2) data analysis software. The mean absorbance of triplicate determinations, the standard deviation, and the % CV (standard deviation/mean* 100) were calculated. The Q test was used to remove outliers (Anderson, Robert L. 1987 in Practical Statistics for Analytical Chemists, page 31-33, Table 7, Appendix D). Data were fit to a 4-parameter curve using SoftMax Pro software. The curve equation is y=((A−D)/(1+(x/C)^B))[…] which defines a sigmoid shaped curve; A is the lower asymptote as X approaches zero; D is the upper plateau as X approaches infinity; B is the slope in the linear portion of the curve; and C is the ED50.
(§5) Test compound and activated Rotavirus were diluted in serum free medium and added to five wells of MA-104 cells. Another 5 wells on the same microtiter plate were exposed to test compound in serum free medium containing trypsin. After three days incubation, cell viability was assessed with the MTT metabolism assay. Data are expressed as percent of control without virus or compound added.

[1] = system: Human Rotavirus strain Wa; assay: Virus Inhibition Assay: MTT viability of MA-104 cells infected with Rotavirus in the presence of test compound; format: cell-based; conditions: for MA-104 Infection with Lactulose (Mean OD): MTT absorbance 570 nm, 3 days, mean ± sd, triplicate; for Fate of MA-104 cells treated with virus and compound (MTT metabolism assay): in the presence of virus, Table 2; for MA-104 Cell Viability After Exposure to Test Compound with Rotavirus, (+) Virus: percent of control without virus or compound added, MTT after three days, five wells, compound concentration not given
Protocol: as §1
Human Rotavirus strain Wa was obtained from the American Type Culture Collection. A virus stock was diluted 1:5 in media, aliquoted to 0.2 mL per vial and stored at approximately −80° C. The human Rotavirus strain, Wa (TC adapted) (Catalog No. VR-2018), originally isolated from a diarrheic stool from a human patient (Wyatt et al., Science 207: 189-191, 1980; U.S. Pat. No. 4,341,870), is Serotype 1 (G1) for VP7.
as §2, §3, §4, §5

[2] = system: Human Rotavirus strain Wa; conditions: previous results referred to in the text; cited from earlier work

Compound: OC[C@H]1O[C@@H](O[C@@H]2[C@@H](CO)O[C@](O)(CO)[C@H]2O)[C@H](O)[C@@H](O)[C@H]1O [Lactulose, 4-O-β-D-galactopyranosil-D-fructofuranose]
- MA-104 Cell Viability After Exposure to Test Compound without Rotavirus, (−) Virus (MA-104 cells; Rhesus monkey, 3 days): 134%
- MA-104 cells, no virus (Mean OD) (MA-104 cells; Rhesus monkey, 3 days, 1 μg/mL): 0.372 ± 0.093
- MA-104 cells, no virus (Mean OD) (MA-104 cells; Rhesus monkey, 3 days, 10 μg/mL): 0.419 ± 0.070
- MA-104 cells, no virus (Mean OD) (MA-104 cells; Rhesus monkey, 3 days, 100 μg/mL): 0.612 ± 0.192
- MA-104 Infection with Lactulose (Mean OD) ([1]; Lactulose 1 μg/mL, virus (diln)-1 10): 0.072 ± 0.007
- MA-104 Infection with Lactulose (Mean OD) ([1]; Lactulose 1 μg/mL, virus (diln)-1 50): 0.132 ± 0.010
- MA-104 Infection with Lactulose (Mean OD) ([1]; Lactulose 1 μg/mL, virus (diln)-1 250): 0.428 ± 0.092
- MA-104 Infection with Lactulose (Mean OD) ([1]; Lactulose 1 μg/mL, virus (diln)-1 1250): 0.756 ± 0.036
- MA-104 Infection with Lactulose (Mean OD) ([1]; Lactulose 1 μg/mL, virus (diln)-1 6250): 0.743 ± 0.064
- MA-104 Infection with Lactulose (Mean OD) ([1]; Lactulose 1 μg/mL, virus (diln)-1 31250): 0.782 ± 0.049
- MA-104 Infection with Lactulose (Mean OD) ([1]; Lactulose 1 μg/mL, virus (diln)-1 156250): 0.804 ± 0.031
- MA-104 Infection with Lactulose (Mean OD) ([1]; Lactulose 10 μg/mL, virus (diln)-1 10): 0.087 ± 0.002
- MA-104 Infection with Lactulose (Mean OD) ([1]; Lactulose 10 μg/mL, virus (diln)-1 50): 0.315 ± 0.168
- MA-104 Infection with Lactulose (Mean OD) ([1]; Lactulose 10 μg/mL, virus (diln)-1 250): 0.541 ± 0.330
- MA-104 Infection with Lactulose (Mean OD) ([1]; Lactulose 10 μg/mL, virus (diln)-1 1250): 0.869 ± 0.088
- MA-104 Infection with Lactulose (Mean OD) ([1]; Lactulose 10 μg/mL, virus (diln)-1 6250): 0.808 ± 0.085
- MA-104 Infection with Lactulose (Mean OD) ([1]; Lactulose 10 μg/mL, virus (diln)-1 31250): 0.820 ± 0.082
- MA-104 Infection with Lactulose (Mean OD) ([1]; Lactulose 10 μg/mL, virus (diln)-1 156250): 0.844 ± 0.030
- MA-104 Infection with Lactulose (Mean OD) ([1]; Lactulose 100 μg/mL, virus (diln)-1 10): 0.133 ± 0.045
- MA-104 Infection with Lactulose (Mean OD) ([1]; Lactulose 100 μg/mL, virus (diln)-1 50): 0.849 ± 0.061
- MA-104 Infection with Lactulose (Mean OD) ([1]; Lactulose 100 μg/mL, virus (diln)-1 250): 0.906 ± 0.081
- MA-104 Infection with Lactulose (Mean OD) ([1]; Lactulose 100 μg/mL, virus (diln)-1 1250): 0.971 ± 0.060
- MA-104 Infection with Lactulose (Mean OD) ([1]; Lactulose 100 μg/mL, virus (diln)-1 6250): 1.012 ± 0.153
- MA-104 Infection with Lactulose (Mean OD) ([1]; Lactulose 100 μg/mL, virus (diln)-1 31250): 0.951 ± 0.038
- MA-104 Infection with Lactulose (Mean OD) ([1]; Lactulose 100 μg/mL, virus (diln)-1 156250): 0.942 ± 0.040
- Protection of MA-104 cells from virus killing ([1]; MA-104 cells infected with Rotavirus, lactulose 1, 10, 100 μg/mL): protected MA-104 cells from virus killing in a dose dependent manner
- Fate of MA-104 cells treated with virus and compound (MTT metabolism assay) [1]: remained viable
- MA-104 Cell Viability After Exposure to Test Compound with Rotavirus, (+) Virus [1]: 119%

Compound: Sialyllactose
- MA-104 Cell Viability After Exposure to Test Compound without Rotavirus, (−) Virus (MA-104 cells): 100%
- Fate of MA-104 cells treated with virus and compound (MTT metabolism assay) [1]: significant cell kill due to virus infection
- MA-104 Cell Viability After Exposure to Test Compound with Rotavirus, (+) Virus [1]: 17%

Compound: arabinogalactan
- MA-104 Cell Viability After Exposure to Test Compound without Rotavirus, (−) Virus (MA-104 cells): 102%
- Fate of MA-104 cells treated with virus and compound (MTT metabolism assay) [1]: significant cell kill due to virus infection
- MA-104 Cell Viability After Exposure to Test Compound with Rotavirus, (+) Virus [1]: 19%

Compound: galactooligosaccharide
- MA-104 Cell Viability After Exposure to Test Compound without Rotavirus, (−) Virus (MA-104 cells): 116%

Compound: kappa-carageenen [Kappa Carageenen]
- MA-104 Cell Viability After Exposure to Test Compound without Rotavirus, (−) Virus (MA-104 cells): 112%
- Fate of MA-104 cells treated with virus and compound (MTT metabolism assay) [1]: remained viable
- MA-104 Cell Viability After Exposure to Test Compound with Rotavirus, (+) Virus [1]: 119%
- Inhibition of Rotavirus according to previous results / previous data [2]: inhibits Rotavirus infection
